# From patent US9657046B2, “Methods for the treatment and prevention of inflammatory diseases” (Children's Medical Center Corporation, priority 2010, dated 2017)
# System: BALB/c mice
# Test: OVA-induced AHR in adult mice treated with glycolipid at 2 weeks of age
# Type: in vivo, mouse
# Settings: 2 wk old mice treated i.p. (α-C-GalCer 5 μg, α-GalCer 2 μg, PI57 50 or 100 μg, PBS30 50 μg); AHR induced 6 wks (42 days) later
# Procedure: In FIGS. 6A-6B, two-week-old BALB/c mice (n=6-8/group) (6A) or Tbet^−/− mice (6B) (n=4-6 per group) received 5 μg […] (cGal), 2 μg α-GalCer, or vehicle. After OVA sensitization and challenge, AHR was measured on day 44. In FIG. 6C, donor mice were treated with α-C-GalCer (5 μg) or vehicle i.p. NKT cells served as donors, as in FIG. 4A (n=4 per group). Lung resistance (left) and cell counts in BAL (right) were assessed. […] In FIG. 6E, mice received PI57 (50 μg), α-GalCer (2 μg), or vehicle i.p., and lungs were examined 1 or 14 days later for CD4 and CD8 expression. In FIG. 6F, absolute numbers of CD4^+ NKT and DN NKT subsets from 6E were assessed. In FIG. 6G, BALB/c mice (n=5-8/group) received PI57 or vehicle i.p. Lung resistance (left) and BAL cells (right) were assessed. In FIG. 6H, BALB/c mice treated with PI57 (50 μg), PBS30 (Sphingomonas glycolipid) (50 μg), or vehicle i.p. were assessed for AHR as in 6G. In FIG. 6I, donor mice were treated with PI57 (50 μg) or vehicle i.p. NKT cells served as donors as in FIG. 4A. Lung resistance (left) and BAL cells (right) were assessed (n=4 per group). […] Data represent 2-3 independent experiments. *P<0.05, #P<0.05, ***P<0.001 versus vehicle-OVA (6C, 6G, and 6I), DN NKT saline (6F), and CD4^+ NKT saline (6F).
# Induction of AHR and measurement of airway responsiveness in the OVA model.
# To induce AHR, BALB/c mice were sensitized with 100 μg of OVA (Sigma-Aldrich) in alum administered i.p (on day 0). After sensitization, mice were exposed to intranasal antigen (50 μg OVA/day) or normal saline for 1 day (day 7; single dose challenge protocol), or for 3 consecutive days (days 7, 8, 9). AHR was assessed on the day after last OVA-challenge. Control mice received i.p. injection of PBS and intranasal administrations of normal saline.
smiles,measurement,value
"CCCCCCCCCCCCCC(=O)OC[C@H]1O[C@H](O[C@H]2CC[C@@]3(C)C(=CC[C@H]4[C@@H]5CC[C@H]([C@H](C)CCCC(C)C)[C@@]5(C)CC[C@@H]43)C2)[C@H](O)[C@@H](O)[C@@H]1O [PI57, Cholesteryl 6-O-tetradecanoyl-α-D-glucopyranoside]",protection against development of OVA-induced AHR (lung resistance),protected the mice from the development of OVA-induced AHR
